Assay results as given in ChEMBL document CHEMBL5532691, “Anti-cancer activity and mechanism of flurbiprofen organoselenium compound RY-1-92 in non-small cell lung cancer” (RSC Med Chem, 2024).

Key:
BEAS-2B [1] = assay: Cytotoxicity against human BEAS-2B cells assessed as reduction in cell viability at 1.2 mM measured after 48 hrs by MTT assay; assay type: toxicity, cell-based; details: 1200 µM
BEAS-2B [2] = assay: Cytotoxicity against human BEAS-2B cells assessed as reduction in cell viability at 25 uM measured after 48 hrs by MTT assay; assay type: toxicity, cell-based

Compound	Activity (BEAS-2B [1])	Activity (BEAS-2B [2])
CC1=C(CC(=O)O)c2cc(F)ccc2/C1=C\c1ccc([S+](C)[O-])cc1 (configuration not stated) [SULINDAC]	Toxic	
O=c1[nH]cc(F)c(=O)[nH]1 [FLUOROURACIL]		Toxic
